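Step 1: Grow cells in 96-well plates. Step 2: Expose to compound for 48 hours at 5 concentrations. Step 3: Interpolate endpoints linearly; if unreached, use highest concentration. At the GI50, growth is halved.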 Active and inactive are the calls of the source. Cut-off read from the data, not from the text of the source: active = GI50 up to about 1.1 µM and inactive = higher.
Tests used:
Test in all cases: DTP human tumour cell line panel, 48 h
[1] = tested on: A549
[2] = tested on: ACHN
[3] = tested on: DU-145
[4] = tested on: EKVX
[5] = tested on: HOP-62
[6] = tested on: HOP-92
[7] = tested on: IGROV-1
[8] = tested on: MCF7
[9] = tested on: NCI-H460
[10] = tested on: NCI/ADR-RES
[11] = tested on: OVCAR-3
[12] = tested on: RPMI-8226
[13] = tested on: SF-268
[14] = tested on: SK-MEL-5
[15] = tested on: SNB-19
[16] = tested on: SR
[17] = tested on: TK-10
[18] = tested on: U-251
[19] = tested on: UO-31
[20] = tested on: XF498

Measured: GI50

O=C1C=C(NCC(c2ccccc2)c2ccccc2)C(=O)c2ncccc21
inactive: [2] 2.28 µM | [3] 1.96 µM | [4] 2.07 µM | [5] 1.57 µM | [6] 2.26 µM | [7] 1.38 µM | [8] 1.4 µM | [10] 2.49 µM | [12] 1.72 µM | [13] 2.53 µM | [15] 2.58 µM | [16] 1.63 µM | [17] 17 µM | [18] 2.05 µM
active: [1] 0.668 µM | [9] 0.518 µM | [11] 0.991 µM | [14] 0.427 µM | [19] 1.11 µM

CCc1ccc(CCC(=O)O)nc1
inactive: [1] > 100 µM | [2] > 100 µM | [3] > 100 µM | [4] > 100 µM | [5] > 100 µM | [6] > 100 µM | [7] > 100 µM | [8] > 100 µM | [9] > 100 µM | [10] > 100 µM | [11] > 100 µM | [12] > 100 µM | [13] > 100 µM | [14] > 100 µM | [15] > 100 µM | [16] > 100 µM | [17] > 100 µM | [18] > 100 µM | [19] > 100 µM

Nc1nc(Cl)c(N)c(NCC2(CO)CC2)n1
inactive: [1] > 100 µM | [2] > 100 µM | [3] > 100 µM | [4] > 100 µM | [5] > 100 µM | [6] > 100 µM | [7] > 100 µM | [8] > 100 µM | [9] > 100 µM | [10] > 100 µM | [11] > 100 µM | [12] > 100 µM | [13] > 100 µM | [14] > 100 µM | [15] > 100 µM | [16] > 100 µM | [17] > 100 µM | [18] > 100 µM | [19] > 100 µM

C=CC(OC(C)=O)c1ccc(OC(=O)C(C)C)c(OC)c1 (stereo not drawn)
inactive: [1] 18.8 µM | [2] 3.34 µM | [3] 11.5 µM | [4] 7.5 µM | [5] 10.2 µM | [6] 5.93 µM | [7] 12.9 µM | [8] 2.36 µM | [9] 11.4 µM | [10] 10.2 µM | [11] 5.81 µM | [12] 1.82 µM | [13] 7.8 µM | [14] 15.3 µM | [15] 11.8 µM | [16] 2.49 µM | [17] 5.04 µM | [18] 2.39 µM | [19] 3.44 µM

CC(=O)OCc1cncn1S(=O)(=O)c1ccc(C)cc1
inactive: [1] > 100 µM | [2] > 100 µM | [3] > 100 µM | [4] > 100 µM | [5] > 100 µM | [6] > 100 µM | [7] > 74 µM | [8] > 25.4 µM | [9] 29.9 µM | [10] > 55.5 µM | [11] 43.5 µM | [12] 35 µM | [13] > 100 µM | [14] 24.2 µM | [15] > 100 µM | [16] 11.4 µM | [17] > 100 µM | [18] > 87.7 µM | [19] > 100 µM

O=P1(Oc2ccccc2)N(CCCl)CCN1c1ccccc1 (stereo not drawn)
inactive: [1] > 100 µM | [2] > 100 µM | [3] > 100 µM | [4] 80.4 µM | [5] > 100 µM | [6] > 100 µM | [7] 42.7 µM | [8] 70.1 µM | [9] > 100 µM | [10] 83.6 µM | [11] > 100 µM | [12] > 100 µM | [13] > 100 µM | [14] 66.5 µM | [15] > 100 µM | [16] 79.3 µM | [17] 81.5 µM | [18] > 100 µM | [19] > 100 µM

COc1ccc(S(=O)(=O)N/N=C\c2cc([N+](=O)[O-])cc(I)c2O)c(OC)c1OC
inactive: [1] 59 µM | [2] 29.9 µM | [4] 29.9 µM | [6] 13.5 µM | [7] 32 µM | [9] 33 µM | [11] 20.7 µM | [12] 26.5 µM | [13] 26.5 µM | [14] 21.2 µM | [15] 21.1 µM | [17] 40.4 µM | [18] 25.3 µM | [19] 18.5 µM | [20] 20.7 µM

Cc1cc(NS(=O)(=O)c2ccc(NC(=O)c3cccc4c(NNc5ccc(S(=O)(=O)N=C(N)N)cc5)c5ccccc5nc34)cc2)no1
inactive: [1] > 100 µM | [2] 50.4 µM | [3] 51.5 µM | [4] 19.7 µM | [5] > 100 µM | [6] 17.3 µM | [7] 45.6 µM | [8] 43.7 µM | [9] 51.9 µM | [10] > 100 µM | [11] 41.2 µM | [12] 82 µM | [13] 39 µM | [14] 44.7 µM | [15] 45.6 µM | [16] 35.8 µM | [17] > 100 µM | [18] 22.6 µM | [19] 54.2 µM

COc1cc2c(cc1OC)C(C(=O)O)C(c1ccccc1)N(C)C2=O (stereo not drawn)
inactive: [1] > 100 µM | [2] > 100 µM | [4] > 100 µM | [5] > 100 µM | [7] > 100 µM | [9] > 100 µM | [11] > 100 µM | [12] > 100 µM | [13] > 100 µM | [14] > 100 µM | [15] > 100 µM | [17] > 100 µM | [18] > 100 µM | [19] > 100 µM | [20] > 100 µM

CC1=C(C(=O)Nc2ccccc2C)C(c2ccc([N+](=O)[O-])cc2)C(C(=O)Nc2ccccc2C)=C(C)N1
inactive: [1] 22.5 µM | [2] 30.2 µM | [4] > 100 µM | [5] > 100 µM | [7] 78 µM | [9] 44.9 µM | [11] 40.1 µM | [12] 28.6 µM | [13] 39.1 µM | [14] 11.3 µM | [15] 22.8 µM | [17] 46.1 µM | [18] > 100 µM | [19] 20.5 µM | [20] 40.3 µM

CCOC(=O)N1N=C(/C(C)=N/OC)C(C)[S+]1[O-] (stereo not drawn)
inactive: [1] > 100 µM | [2] > 100 µM | [3] > 100 µM | [4] > 100 µM | [5] > 100 µM | [6] > 100 µM | [7] > 100 µM | [8] > 100 µM | [9] 57.7 µM | [10] > 100 µM | [11] > 100 µM | [12] > 100 µM | [13] > 100 µM | [14] > 100 µM | [15] > 100 µM | [16] > 100 µM | [17] > 100 µM | [18] > 100 µM | [19] > 100 µM

CC(=O)Nc1ccc2c(c1)C(=O)c1cccc(F)c1-2
active: [3] 0.113 µM
inactive: [1] 49.2 µM | [2] 36.6 µM | [4] > 100 µM | [5] 51.3 µM | [6] 65.5 µM | [7] 20.1 µM | [8] 4.33 µM | [9] 35.4 µM | [10] 48.2 µM | [11] 68.2 µM | [12] 38.8 µM | [13] 48.1 µM | [14] 45.4 µM | [15] > 100 µM | [16] 19.9 µM | [17] 55.6 µM | [18] 38.6 µM | [19] 21.2 µM

CCNc1nnc(-c2ccccc2Nc2ccccc2-c2nnc(NCC)s2)s1
inactive: [1] 13.5 µM | [2] 7.35 µM | [3] 4.72 µM | [4] 20.9 µM | [5] 22.2 µM | [6] 5.92 µM | [7] 6.18 µM | [8] 2.28 µM | [9] 5.66 µM | [10] 10.5 µM | [11] 18.3 µM | [12] 14 µM | [13] 13.4 µM | [14] 5.52 µM | [15] 27.4 µM | [16] 47.8 µM | [17] 11.4 µM | [18] 11.4 µM | [19] 4.71 µM

Cc1occc1C(=S)Nc1ccc(Cl)c(/C=N/OC(C)(C)C)c1
inactive: [1] 16.6 µM | [2] 14.6 µM | [3] 19.7 µM | [4] 18.4 µM | [5] 19.9 µM | [6] 13 µM | [7] 23.8 µM | [8] 18.1 µM | [9] 14.7 µM | [10] 14.7 µM | [11] 15.6 µM | [12] 16.7 µM | [13] 22.6 µM | [14] 17.3 µM | [15] 18.7 µM | [16] 12.9 µM | [17] 21.9 µM | [18] 13.9 µM | [19] 13.9 µM

Cn1cc(NC(=O)c2cc(NC(=O)CNC(=N)N)cn2C)cc1C(=O)NCCC(=N)N [NETROPSIN CHLORIDE]
inactive: [1] > 100 µM | [2] > 100 µM | [3] > 100 µM | [4] > 100 µM | [5] > 100 µM | [6] > 100 µM | [7] > 100 µM | [8] > 100 µM | [9] > 100 µM | [10] > 100 µM | [11] > 100 µM | [12] > 100 µM | [13] > 100 µM | [14] > 100 µM | [15] > 100 µM | [16] > 100 µM | [17] > 100 µM | [18] > 100 µM | [19] > 100 µM

Source: ChEMBL document CHEMBL1201862, “PubChem BioAssay data set” (2004)
